The results in this text go back to article PMC12814185, “Receptor-Mediated Shuttling of a D‑Amino Acid Peptide Achieves High Nanomolar Cytosolic Concentrations” (Journal of the American Chemical Society, 2025).

The test system of data set [1] is HEK293 cells stably expressing CMKLR1-eYFP. In words: Live cell fluorescence microscopy of peptide internalization, cells with CMKLR1. It counts as cell-based. The settings on record: 1 μM Cy5-labeled peptide, 6 h, cells transfected with CMKLR1. How it is done:
2 Internalization of cyclic chemerin-9 conjugates. Live cell fluorescence microscopy of HEK293 and HEK293 cells stably expressed CMKLR1-eYFP. Cells were incubated with 1 μM Cy5-labeled peptide for 6 h before imaging. Blue = Hoechst33342, yellow = CMKLR1-eYFP, magenta = Cy5-peptide, scale bar ≙ 10 μm. […]
Salt Solution (HBSS, Biowest), pH 7.5) for 1 h. […]
Experiments were performed in technical duplicates and at least […]
HEK293 and HEK293_CMKLR1-eYFP cells were seeded at 15,000 cells per well into poly-ᴅ-lysine coated 96-well plates (black µCLEAR, Greiner). The next day, dilutions of the Cy5 -labeled peptides or Nutlin-3a […]
Cells were then washed and a resazurin-based cell viability […]
assay was performed. […]
Experiments […]
were performed in technical triplicates and at least twice.
Peptide internalization was evaluated by fluorescence microscopy. HEK293 and stably transfected […]
microscopy slides (ibidi). The next day, 1 µM Cy5-labeled peptides in cell culture medium were added to the cells and incubated for 6 h.
FluoroBriteTM DMEM (Gibco) with 10% FBS, 25 mM HEPES (pH 7.4) before imaging on an AxioVision Observer.Z1 microscope equipped with an apotome imaging system, an HXP120C light source, and a C-Apochromat 63x/1.20 W objective. All shown microscopy images are representative of at least two

The subject of another data set is HEK293_CMKLR1-eYFP cells. In words: Intracellular peptide stability (cleavage products in cell lysate, RP-HPLC, MALDI-ToF-MS). The settings on record: 1 μM peptide; for intact peptide in cell lysate: 15 min to 24 h, RP-HPLC λex 640 nm λem 670 nm; for cleavage site identified by MALDI-ToF-MS: PMIγ sequence remained intact. How it is done:
3 Quantification of Cy5-labeled peptides in the cytosol. (A) RP-HPLC (λex = 640 nm, λem = 670 nm) of cleavage products of Cy5-labeled peptides in the lysate of HEK293_CMKLR1-eYFP cells after incubation with 1 μM peptide for different durations. […] (B) Representative fluorescence correlation spectroscopy (FCS) autocorrelation curves of Cy5-labeled peptides measured in the cytosol of HEK293_CMKLR1-eYFP cells after 72 h of incubation. Measured curves were fitted with a model for hindered 3D diffusion and diffusion time t D and anomalous coefficient α were calculated from the fit. Autocorrelation data represent mean ± SD of up to 10 consecutive 5 s measurements in a single cell. (C) Intracellular concentrations of Cy5-labeled peptides after 72 h incubation calculated from the fitted autocorrelation curves obtained in HEK293_CMKLR1-eYFP, HMEC-1, and THP-1 cells. Each data point corresponds to FCS measurements from the cytosol of a single cell. Median with the interquartile range is shown. Data from three independent experiments. Statistical comparison by log-normal unpaired t test. ***p ≤ 0.001, **p ≤ 0.01, *p ≤ 0.05, ns – not significant. […] (D) Calculated diffusion coefficients from the fitted autocorrelation curves. Median with the interquartile range is shown.
Intracellular peptide stability
2 mL of 1 µM Cy5-labeled peptide in DMEM/Ham's F12 (1:1) + 15% FBS without phenol red were incubated on stably transfected HEK293_CMKLR1-eYFP cells in T25 cell culture flasks for 15 min to 24 h. The cells were washed with cold acidic wash (50 mM glycine, 100 mM sodium chloride, pH 3) and phosphate-buffered saline (PBS, Biowest) and harvested into 300 µl cold PBS with HaltTM Protease inhibitor cocktail (Thermo).
Suspended cells were homogenized with zirconia beads on a FastPrep-24 5G system (MP Biomedical) for 30 s and cellular proteins were precipitated from 600 µL ACN/ethanol (1:1) + 0.1% TFA at -20 °C for 2 h.
Cell lysates were then filtered through Costar Spin-X tubes, separated by RP-HPLC and isolated peaks were identified by MALDI-ToF MS (Ultraflextreme, Bruker). Experiments were performed at least twice and representative RP-HPLC chromatograms are shown.

A short description of data set [2]: FCS diffusion coefficient in solution. It counts as physicochemical. The settings on record: 10 nM in Fluorobrite DMEM, 22 °C, mean and SD of three independent measurements. The text has this:
Fluorescence correlation spectroscopy (FCS) […] Nuclei were […] HEPES (pH 7.4). […] Prior to measurements, the correction collar of the objective […] Repeats […] is the autocorrelation at τ, N the average number of molecules in the focal volume, τD the average diffusion time through the focal volume, α the anomalous coefficient describing the hindered diffusion, S the shape factor of the focal volume, τE the time domain of the additional exponential term and E the fraction of molecules in the exponential term. […] [nM] [nM] […] 100 23.5 ± 40.2 11.9 *÷ 3.0 10.2 (5.2-32.1) 1000 138 ± 122 87.7 *÷ 3.0 98.8 (37.8-199) 10000 308 ± 257 239 *÷ 2.0 228 (157-435) […] Table S8. Predicted and measured diffusion coefficients D in solution. Measurements were performed with 10 nM of fluorescent compounds in Fluorobrite […] Data from three independent measurements. Mean and standard deviation are shown. name molecular predicted D measured […]] sulfo-Cy5 778.0 - 341.6 (reference) […] Intracellular cleavage product 2401.8 244.7 - 3Cy […]9 4475.1 175.0 138.5 ± 5.1 Intracellular cleavage product 2733.2 234.4 - 18

Where a SMILES comes first, the peptide text is derived from it. Bridges are numbered along the chain shown (N, C = ends). Roman numbers before positions name the chains, in order. Triazole bridges read from a SMILES are 1,4-linked. Where no end group is shown, it is not given here. Side-chain parts run from the residue outwards. [ ]: non-standard residue; d: D form. The star is where a group is joined. X2 = CN1C(=C/C=C/C=C/C2=[N+](CCCCCC(=O)*)c3ccc(S(=O)(=O)[O-])cc3C2(C)C)C(C)(C)c2cc(S(=O)(=O)O)ccc21; X1 = CN1C(=CC=CC=CC2=[N+](CCCCCC(=O)*)c3ccc(S(=O)(=O)[O-])cc3C2(C)C)C(C)(C)c2cc(S(=O)(=O)O)ccc21; Lys(N3) = [N-]=[N+]=NCCCC[C@H](N)C(=O)O; Cit = NC(=O)NCCC[C@H](N)C(=O)O; d(hCys) = N[C@H](CCS)C(=O)O; PEG3 = NCCOCCOCCOCCC(=O)O; Pra = C#CC[C@H](N)C(=O)O

With `CC(=O)N[C@@H](CCCCn1cc(C[C@H](NC(=O)CCOCCOCCOCCNC(=O)[C@H](CCCNC(N)=O)NC(=O)[C@@H](NC(=O)[C@H](CCC(=O)O)NC(=O)CNC(=O)CNC(=O)[C@@H](CCCNC(=N)N)NC(=O)[C@@H](CC(C)C)NC(=O)[C@@H](CC(C)C)NC(=O)[C@@H](C)NC(=O)[C@@H](CCC(=O)O)NC(=O)[C@@H](Cc2ccccc2)NC(=O)[C@@H](C)NC(=O)[C@@H](CC(C)C)NC(=O)[C@H]2CCCN2C(=O)[C@@H](Cc2c[nH]c3ccccc23)NC(=O)[C@@H](Cc2c[nH]c3ccccc23)NC(=O)[C@@H](CC(=O)O)NC(=O)CCOCCOCCOCCNC(=O)CCCCC[N+]2=C(/C=C/C=C/C=C3N(C)c4ccc(S(=O)(=O)O)cc4C3(C)C)C(C)(C)c3cc(S(=O)(=O)[O-])ccc32)C(C)C)C(N)=O)nn1)C(=O)N[C@@H](Cc1ccc(O)cc1)C(=O)N[C@@H](Cc1ccccc1)C(=O)N1CCC[C@H]1C(=O)N[C@@H]1CCSSC[C@@H](C(=O)O)NC(=O)[C@H](Cc2ccccc2)NC(=O)[C@H](C)NC(=O)[C@H](Cc2ccccc2)NC(=O)[C@H](CCC(N)=O)NC1=O` [2Cy] (I: {X2-PEG3}-[dD][dW][dW][dP][dL][dA][dF][dE][dA][dL][dL][dR]GGEV[Cit][PEG3][Pra]-NH2 / II: Ac-[Lys(N3)]YFP[d(hCys)]QFAFC-OH; triazole I:19-II:1; disulfide II:5-II:10), in data set [1], the internalization result is on record as “internalized efficiently”. The “intact peptide in cell lysate” value with HEK293_CMKLR1-eYFP cells is on record as “almost no intact peptide was detected”. The “cleavage site identified by MALDI-ToF-MS” value with HEK293_CMKLR1-eYFP cells (lysate) is “valine-citrulline linker was quickly cleaved”. Moreover, in data set [2], the “measured D in solution” value came out at 154.2 ± 4.3 µm2/s.
As for “I: GSVSHHHHHHGGHHHH[PEG3][dK]([PEG3-X1])[dD][dW][dW][dP][dL][dA][dF][dE][dA][dL][dL][dR]GEV[Cit][PEG3][Pra]-NH2 / II: Ac-[Lys(N3)]YFP[d(hCys)]QFAFC-OH (triazole I:36-II:1; disulfide II:5-II:10) [3Cy]”, in data set [1], the internalization result is reported as “internalized efficiently”. The “intact peptide in cell lysate” value in the data set on HEK293_CMKLR1-eYFP cells is on record as “almost no intact peptide was detected”. Besides, the “incubation time after which a singular cleavage product peak was observed” value with HEK293_CMKLR1-eYFP cells (RP-HPLC of lysate) was 1 h. In the data set with HEK293_CMKLR1-eYFP cells (lysate, MALDI-ToF-MS), the “fate of the hsLMWP sequence” value is given as “completely removed”. Further, the “cleavage site identified by MALDI-ToF-MS” value in the data set on HEK293_CMKLR1-eYFP cells (lysate) is given as “valine-citrulline linker was quickly cleaved”. Moreover, the “measured D in solution” value in data set [2] is 138.5 ± 5.1 µm2/s.
